Data reported in PubChem BioAssay (NCI).
Values joined by “and” are separate entries in the source; they are usually repeats but may differ in a detail not shown here. Equal entries are not always repeated.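 Where inhibition never reached the appropriate level, the endpoint shown equals the highest concentration tested. Otherwise, values were interpolated linearly from a five-concentration, 48-hour dose response in 96-well plates. At the GI50, growth is halved. Definition used: TGI = concentration required for complete inhibition of growth.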

Tested on: MDA-MB-468 breast
Experiment: inhibition of tumour cell growth, NCI panel, 48 h

Compound | GI50 | TGI
COC(=O)[C@@H](NC(=O)[C@@H](OC)[C@@H]1Cc2cc3cc(OC4CC(OC5CC(O)C(O)C(C)O5)C(O)C(C)O4)c(C)c(O)c3c(O)c2C(=O)[C@H]1OC1CC(OC2CC(OC3CC(C)(O)C(O)C(C)O3)C(O)C(C)O2)C(O)C(C)O1)C(C)C (some centres undefined) | 131 nM | 2600 nM
Cc1n(Cc2ccc3ccccc3c2)cc[n+]1Cc1ccc2ccccc2c1 | 252 nM | 819 nM
CC(=O)Oc1ccccc1C(=O)N=C1[Se]CCN1C(=O)c1ccccc1OC(C)=O | 740 nM | 2670 nM
COc1cc2cn3c4ccc(O)cc4[nH]c(=O)c3c2cc1OC | 20 nM | 56.8 nM
O=C1/C(=C\c2cccn2Cc2ccccc2)c2ccccc2N1c1c(Cl)cccc1Cl | 118 nM | 463 nM
N#CC1(C2SCCS2=O)C2=C(C(=O)c3ccccc3C2=O)N2CCCC21 (centres undefined) | 467 nM | 1900 nM
CCN(CC)CCOc1ccc(/C(=C(\C)c2ccc(F)c(OC)c2)c2ccc(Cl)cc2)cc1 | 1910 nM | 4230 nM
Cc1ccc(Nc2nc(N)c(C(=O)c3ccc(C#N)cc3)s2)cc1 | 229 nM | 663 nM
Cc1c(C2Nc3ccccc3C2C)[nH]c2ccccc12 (centres undefined) | 10400 nM | 27800 nM
Cc1sc2nc(NCCc3c[nH]c4ccc(Cl)cc34)[nH]c(=O)c2c1C | 2130 nM | 4680 nM
O=C(Nc1cccc(Cl)c1)c1cc2ccccc2cc1O | 2200 nM and 1910 nM | 10400 nM and 6670 nM
C#CC(=O)Nc1cccc(Nc2nc3c(c(NCc4ccccc4)n2)CCCC3)c1 | 168 nM | 573 nM
CCN1C(=O)N(CC)C2C1NC(=S)N2/N=C/C=C/c1cccs1 (centres undefined) | 198 nM | –
CCCCCc1c(C)[nH]c(/C=C2\N=C(c3ccc[nH]3)C=C2CC)c1C | 21.5 nM | 90.4 nM
NC(=O)C(=CNc1nc(-c2ccc(Cl)c(Cl)c2)cs1)C(N)=O | > 100000 nM | > 100000 nM
